Where two headings read alike, the source gives them in different places.
Key:
[1] = system: Streptococcus pneumoniae 6303; experiment: Example 1: growth and colony color on plates surface-spread with chromogen; assay type: cell-based
[2] = system: Aeromonas hydrophilia (aehy); experiment: Example 3: colony color on chromogenic TSA II with 5% sheep blood (chromogen in medium); assay type: cell-based; conditions: for Colony Color: CO2
[3] = system: Branhamella catarrhalis (brca); experiment: as above; assay type: cell-based; conditions: for Colony Color: CO2
Candida albicans (caal) = experiment: as above; assay type: cell-based
[4] = system: Entercoccus faecalis (enfa); experiment: as above; assay type: cell-based
[5] = system: E. coli (non-O157) (esco); assay type: cell-based
[6] = system: Klebsiella pneumoniae (klpn); experiment: Example 3: colony color on chromogenic TSA II with 5% sheep blood (chromogen in medium); assay type: cell-based
[7] = system: Pseudomonas aeruginosa (psae); experiment: as above; assay type: cell-based; conditions: for Colony Color: CO2
Salmonella spp. (sasp) = assay type: cell-based; conditions: for Colony Color: CO2
[8] = system: Serratia marcescens (sema); experiment: Example 3: colony color on chromogenic TSA II with 5% sheep blood (chromogen in medium); assay type: cell-based; conditions: for Colony Color: sema 13880, CO2
[9] = system: Streptococcus agalactiae (stag); experiment: as above; assay type: cell-based
[10] = system: Staphylococcus aureus (stau); experiment: as above; assay type: cell-based
[11] = system: Staphylococcus Coag Neg (step); experiment: as above; assay type: cell-based; conditions: for Colony Color on Various Chromogenic TSA II with 5% Sheep Blood: 18 h
S. milleri (stmi) = experiment: as above; assay type: cell-based
S. pneumoniae (stpn) = experiment: as above; assay type: cell-based; conditions: for Colony Color on Various Chromogenic TSA II with 5% Sheep Blood: 18 h
S pyogenes (stpy) = experiment: as above; assay type: cell-based; conditions: for Colony Color: 21 h; for Colony Color on Various Chromogenic TSA II with 5% Sheep Blood: 18 h
[12] = Precipitate of chromogen on pre-plated media; assay type: physicochemical; conditions: After 1 week
Method: 50 μl of each chromogen solution was added to the surface of each of the following pre-plated media (one chromogen solution per plate):
The solution was dispersed using a spreader and allowed to dry 3-4 hours in a hood.

milu 9341 = experiment: Example 3: colony color on chromogenic TSA II with 5% sheep blood (chromogen in medium); assay type: cell-based
[13] = chromogenic TSA II with 5% Sheep Blood, 0.1 g/l, 3 strains tested
[14] = chromogenic TSA II with 5% Sheep Blood, 0.1 g/l, 2 strains tested
[15] = chromogenic TSA II with 5% Sheep Blood, 0.1 g/l, 6 strains tested
[16] = chromogenic TSA II with 5% Sheep Blood, 0.1 g/l

CC(=O)N[C@H]1[C@H](Oc2c[nH]c3ccc(Br)c(Cl)c23)O[C@H](CO)[C@H](O)[C@@H]1O [X-Acglmn, 5-Br-4-Cl-3-indolyl-N-Acetyl-β-D-galactosaminide]
Substrates Producing Color ([1]; Summary of Table I, S. pneumoniae 6303): X-Acglmn (TSA II
Color ([1]; TSA II 5SB, S. pneu: 6303): blue
Colony Color ([2]; aehy 7965, 18 h): db
Colony Color ([2]; aehy 7965, 21 h): gb
Colony Color ([2]; aehy 7966, 18 h): db
Colony Color ([2]; aehy 7966, 21 h): gb
Colony Color ([2]; aehy 49847, 18 h): db
Colony Color ([2]; aehy 49847, 21 h): gb
Colony Color (Summary) [2, 13]: +
Colony Color ([3]; brca 25238, 18 h): 0
Colony Color ([3]; brca 25238, 21 h): 0
Colony Color ([3]; brca 25240, 21 h): 0
Colony Color (Summary) [3, 14]: 0
Colony Color (Candida albicans (caal); caal 10231, CO2, 24 h): gb
Colony Color (Candida albicans (caal); caal 10231, air, 24 h): 0
Colony Color (Summary) (Candida albicans (caal); [14]): +
Colony Color (Candida albicans (caal); one C. albicans): blue
Colony Color (Summary) [4, 15]: +
Colony Color ([4]; enfa 597, CO2, 18 h): db
Colony Color ([4]; enfa 597, CO2, 21 h): db
Colony Color ([4]; enfa 10741, CO2, 18 h): db
Colony Color ([4]; enfa 10741, CO2, 21 h): db
Colony Color ([4]; enfa 12953, CO2, 18 h): db
Colony Color ([4]; enfa 12953, CO2, 21 h): db
Colony Color ([4]; enfa 14506, CO2, 18 h): db
Colony Color ([4]; enfa 14506, CO2, 21 h): db
Colony Color ([4]; enfa 29212, CO2, 18 h): db
Colony Color ([4]; enfa 29212, CO2, 21 h): db
Colony Color ([4]; enfa 29212, CO2, 24 h): db
Colony Color ([4]; enfa 29212, air, 24 h): db
Colony Color (Summary) [5, 13]: 0
Colony Color ([5]; esco 11775, CO2, 18 h): 0
Colony Color ([5]; esco 11775, CO2, 21 h): 0
Colony Color ([5]; esco 25922, CO2, 24 h): 0
Colony Color ([5]; esco 25922, air, 24 h): 0
Colony Color ([5]; esco 33605, CO2, 18 h): 0
Colony Color ([5]; esco 33605, CO2, 21 h): 0
Colony Color (Summary) [6, 13]: 0
Colony Color ([6]; klpn 13883, CO2, 18 h): 0
Colony Color ([6]; klpn 13883, CO2, 21 h): 0
Colony Color ([6]; klpn 33495, CO2, 18 h): vlgb
Colony Color ([6]; klpn 33495, CO2, 24 h): 0
Colony Color ([6]; klpn 33495, air, 24 h): 0
Colony Color ([6]; klpn 33606, CO2, 18 h): 0
Colony Color ([6]; klpn 33606, CO2, 21 h): 0
Colony Color (Summary) [7, 13]: 0
Colony Color ([7]; psae 9027, 18 h): 0
Colony Color ([7]; psae 9027, 21 h): 0
Colony Color ([7]; psae 15442, 18 h): 0
Colony Color ([7]; psae 15442, 21 h): 0
Colony Color ([7]; psae 33607, 18 h): 0
Colony Color ([7]; psae 33607, 21 h): 0
Colony Color (Summary) (Salmonella spp. (sasp); [14]): 0
Colony Color (Salmonella spp. (sasp); saty 19430, 18 h): 0
Colony Color (Salmonella spp. (sasp); saty 19430, 21 h): 0
Colony Color (Salmonella spp. (sasp); satym 14028, 18 h): 0
Colony Color (Salmonella spp. (sasp); satym 14028, 21 h): 0
Colony Color (Summary) ([8]; chromogenic TSA II with 5% Sheep Blood, 0.1 g/l, 1 strain tested): +
Colony Color ([8]; 18 h): gb
Colony Color ([8]; 21 h): gb
Colony Color (Summary) [9, 13]: 0
Colony Color ([9]; stag 4768, CO2, 21 h): 0
Colony Color ([9]; stag 4768, air, 21 h): 0
Colony Color ([9]; stag 12386, CO2, 21 h): 0
Colony Color ([9]; stag 12386, CO2, 24 h): 0
Colony Color ([9]; stag 12386, air, 24 h): 0
Colony Color (Summary) ([10]; chromogenic TSA II with 5% Sheep Blood, 0.1 g/l, 5 strains tested): 0
Colony Color ([10]; stau 1006, CO2, 21 h): 0
Colony Color ([10]; stau 1007, CO2, 21 h): 0
Colony Color ([10]; stau 1008, CO2, 21 h): 0
Colony Color ([10]; stau 1009, CO2, 21 h): 0
Colony Color ([10]; stau 25923, CO2, 18 h): 0
Colony Color ([10]; stau 25923, CO2, 24 h): 0
Colony Color ([10]; stau 25923, air, 24 h): 0
Colony Color on Various Chromogenic TSA II with 5% Sheep Blood ([10]; stau t006, CO2, 18 h): 0
Colony Color on Various Chromogenic TSA II with 5% Sheep Blood ([10]; stau t007, CO2, 18 h): 0
Colony Color on Various Chromogenic TSA II with 5% Sheep Blood ([10]; stau t008, CO2, 18 h): 0
Colony Color on Various Chromogenic TSA II with 5% Sheep Blood ([10]; stau t009, CO2, 18 h): 0
Colony Color ([11]; one S. epidermidis): blue
Colony Color on Various Chromogenic TSA II with 5% Sheep Blood ([11]; step 12228, CO2): 0
Colony Color ([11]; step 12228, CO2, 21 h): 0
Colony Color ([11]; step 12228, air, 21 h): 0
Colony Color on Various Chromogenic TSA II with 5% Sheep Blood ([11]; step cdc1, CO2): 0
Colony Color ([11]; step cdc1, CO2, 21 h): 0
Colony Color ([11]; step cdc1, air, 21 h): 0
Colony Color ([11]; step cdc2, CO2, 21 h): 0
Colony Color ([11]; step cdc2, air, 21 h): 0
Colony Color ([11]; step cdc3, CO2, 21 h): 0
Colony Color ([11]; step cdc3, air, 21 h): 1b
Colony Color on Various Chromogenic TSA II with 5% Sheep Blood ([11]; step cdc4, CO2): 0
Colony Color ([11]; step cdc4, CO2, 21 h): 0
Colony Color ([11]; step cdc4, air, 21 h): 0
Colony Color on Various Chromogenic TSA II with 5% Sheep Blood ([11]; stha cdc2, CO2): 0
Colony Color on Various Chromogenic TSA II with 5% Sheep Blood ([11]; stsa cdc3, CO2): 0
Growth vs. control (S. milleri (stmi); [16]): <grth
Colony Color (Summary) (S. milleri (stmi); [14]): 0
Colony Color on Various Chromogenic TSA II with 5% Sheep Blood (S. milleri (stmi); stmi 6242, CO2, 18 h): 0
Colony Color (S. milleri (stmi); stmi 6249, air, 21 h): 0
Growth vs. control (S. pneumoniae (stpn); [16]): <grth
Colony Color (Summary) (S. pneumoniae (stpn); [15]): 0
Colony Color (S. pneumoniae (stpn); stpn 1259, CO2, 21 h): 0
Colony Color (S. pneumoniae (stpn); stpn 1260, CO2, 21 h): 0
Colony Color (S. pneumoniae (stpn); stpn 1331, CO2, 21 h): 0
Colony Color (S. pneumoniae (stpn); stpn 1628, CO2, 21 h): 0
Colony Color (S. pneumoniae (stpn); stpn 6303, CO2, 24 h): 0
Colony Color (S. pneumoniae (stpn); stpn 6303, air, 24 h): 0
Colony Color (S. pneumoniae (stpn); stpn 6305, CO2, 24 h): 0
Colony Color (S. pneumoniae (stpn); stpn 6305, air, 24 h): 0
Colony Color on Various Chromogenic TSA II with 5% Sheep Blood (S. pneumoniae (stpn); stpn t259, CO2): 0
Colony Color on Various Chromogenic TSA II with 5% Sheep Blood (S. pneumoniae (stpn); stpn t260, CO2): 0
Colony Color on Various Chromogenic TSA II with 5% Sheep Blood (S. pneumoniae (stpn); stpn t331, CO2): drkr < muc
Colony Color on Various Chromogenic TSA II with 5% Sheep Blood (S. pneumoniae (stpn); stpn t628, CO2): 0
Growth vs. control (S pyogenes (stpy); [16]): <grth
Colony Color (Summary) (S pyogenes (stpy); [15]): 0
Colony Color (S pyogenes (stpy); stpy 1027, CO2): 0
Colony Color (S pyogenes (stpy); stpy 1028, CO2): 0
Colony Color (S pyogenes (stpy); stpy 1029, CO2): 0
Colony Color (S pyogenes (stpy); stpy 1030, CO2): 0
Colony Color (S pyogenes (stpy); stpy 19615, CO2): 0
Colony Color (S pyogenes (stpy); stpy 19615, air): 0
Colony Color (S pyogenes (stpy); stpy 49117, CO2): 0
Colony Color (S pyogenes (stpy); stpy 49117, air): 0
Colony Color on Various Chromogenic TSA II with 5% Sheep Blood (S pyogenes (stpy); stpy 51339, CO2): 0
Colony Color (S pyogenes (stpy); stpy 51339, CO2): 0
Colony Color (S pyogenes (stpy); stpy 51339, air): 0
Colony Color on Various Chromogenic TSA II with 5% Sheep Blood (S pyogenes (stpy); stpy t027, CO2): 0
Colony Color on Various Chromogenic TSA II with 5% Sheep Blood (S pyogenes (stpy); stpy t028, CO2): 0
Colony Color on Various Chromogenic TSA II with 5% Sheep Blood (S pyogenes (stpy); stpy t029, CO2): 0
Colony Color on Various Chromogenic TSA II with 5% Sheep Blood (S pyogenes (stpy); stpy t030, CO2): 0
Precipitate on plates after 1 week [12]: some precipitate was evident
Colony Color (milu 9341; CO2, 18 h): ly
Colony Color (milu 9341; CO2, 21 h): 0

From US20020086278A1, “CHROMOGENIC MEDIA CONTAINING BLOOD OR HEMIN” (priority 1999, published 2002)
